Experiments:
[1] = system: CXCR4 on human CD34+ UCB cells; assay: CXCR4 surface expression by FACS after pulse exposure, human cells; format: cell-based
Source text: Expression of EP receptors, CXCR4 and Survivin Replicate Lin^neg cell samples from CD45.2 mice were stained for SKL and each of the EP receptors and surface receptor expression on KL and SKL cells determined by FACS. For human EP receptors, UCB was obtained from Wishard Hospital, Indianapolis, Ind. with Institutional Review Board approval. Mononuclear cells were isolated on Ficoll-Paque™ Plus (Amersham Biosciences) and CD34^+ cells positively selected with MACS microbeads (Miltenyi Biotech) (Fukuda and Pelus, 2001). Replicate cells were stained for CD34 and each of the EP receptors and surface expression determined by FACS. […] Cells were stained for SKL (murine cells) and CXCR4, Survivin, and/or active caspase-3, as described above, and analyzed by FACS.
To evaluate CXCR4, Lineage^neg mouse bone marrow cells or CD34^+ UCB were treated on ice with either 1 microMolar dmPGE2 or vehicle control for 2 hours, washed, and then cultured in RPMI-1640/10% HI-FBS at 37° C. for 24 hours, stained for SKL (murine cells) or CD34 (human) and CXCR4 and analyzed by FACS. […] Data are expressed as Mean±SEM % change in mean fluorescence intensity (MFI) of CXCR4 due to treatment with dmPGE2 or vehicle (n=3).

[2] = system: SKL cells; assay: Apoptosis assay (Annexin-V+ SKL cells); format: cell-based, mouse; conditions: for apoptosis of SKL cells in vitro: 0.1 nanoMolar-1 microMolar
Procedure: Lin^neg cells were treated on ice with 0.1 nanoMolar to 1 microMolar dmPGE2 or vehicle control, washed and incubated in RPMI-1640+2% FBS, without growth factors at 37° C. to induce apoptosis. After 24 hours, cells were stained for SKL and Annexin-V and the proportion of Annexin-V^+ SKL cells was determined by FACS.
Apoptosis is an important regulatory process in normal and malignant hematopoiesis and PGE2 has been implicated in anti-apoptotic signalling. Moreover, activation of cAMP, a downstream signaling molecule of EP receptors, inhibits apoptosis in CD34^+ cells. […] To evaluate an effect of dmPGE2 on HSPC survival, Lin^neg cells were pulsed with 0.1 nanoMolar-1 microMolar dmPGE2 or vehicle and cultured in serum-reduced culture medium without growth factors.

[3] = system: SKL cells; assay: In vitro cell cycle analysis; format: cell-based, mouse
Procedure: For in vitro cell cycle analysis, Lin^neg cells were treated with either 1 microMolar dmPGE2 or vehicle for 2 hours, washed, and cultured in Stem Cell Pro Media (Stem Cell Technologies) with rmSCF (50 ng/ml) (R&D Systems, Minneapolis, Minn.), rhFlt-3 and rhTPO (100 ng/ml each) (Immunex, Seattle, Wash.). After 20 hours, cells were stained for SKL, fixed and permeabilized, and stained with 7AAD (BD Biosciences, San Jose, Calif.). The proportion of SKL cells in S+G2/M phase was determined by measuring DNA content by FACS. For in vivo cell cycle analysis, CD45.2 mice were lethally irradiated and transplanted with 5×10^6 Lin^neg cells from CD45.1 mice treated with either 1 microMolar dmPGE2 or vehicle for 2 hours. At the time of transplant, recipient mice received 1 milligram/mL BrdU (Sigma Aldrich, St. Louis, Mo.) in drinking water and 1 mg per mouse BrdU I.P. After 16 hours, recipient marrow was isolated, lineage depleted, and stained for CD45.1, SKL and BrdU. The proportion of homed (CD45.1^+) SKL cells that were BrdU^+ was determined by FACS in individual mice.
Survivin regulates HSPC entry into and progression through cell cycle. Furthermore, β-catenin, implicated in HSPC proliferation and self-renewal, lies downstream of EP receptor pathways. […] To test this hypothesis, the cell cycle status of SKL cells pulsed with dmPGE2 or vehicle in vitro was analyzed. Referring now to FIG. 6A, pulse-exposure to dmPGE2 increased DNA content in SKL cells, an indication of increased cell cycling (left panels, upper right quadrant). In 3 experiments, 60% more SKL cells were in S+G2/M phase of the cell cycle after dmPGE2 treatment compared to controls (FIG. 6A right panel).
Lineage^neg cells were treated with either vehicle or 1 microMolar dmPGE2 for 2 hours, washed and cultured in media with rmSCF, rhFlt3 and rhTpo. After 20 hours cells were stained for SKL and Hoechst-33342 and Pyronin-Y. The proportion of SKL cells in cell cycle were measured by FACS. Referring now to FIG. 12, representative flow plot showing cell cycle distribution of gated SKL cells and combined data for fold increase in cell cycle for dmPGE2-treated cells compared to vehicle control from 3 experiments, Mean±SEM, n=9 mice, each assayed individually. […]
Referring now to FIG. 8, table summarizing data collected using Lin^neg bone marrow cells treated with either 1 microMolar dmPGE2 or vehicle for 2 hours and cultured in the presence of growth factors (50 ng/ml rmSCF, 100 ng/ml each of rhFlt-3 and rhTPO) for 20 hours, were stained for SLAM SKL, Hoechst-33342 and Pyronin-Y and the proportion of SLAM SKL cells in G0, G1, S and G2/M phase of the cell cycle determined by quantitation of the DNA and the RNA content by FACS. Data are Mean±SEM for n=9 mice, each assayed individually. ^(b)Percentage of cells in G1+S+G2M; Combined data for n=9 mice. ^(*^)P<0.05 compared to vehicle control.

SMILES | increase in CXCR4 expression on CD34+ UCB ([1]; after PGE2 exposure) | apoptosis of SKL cells in vitro [2] | cell cycle rate of CD150+48− (SLAM) SKL cells ([3]; in vitro, 1 microMolar 2 hours, 20 hours culture) | proportion of SKL cells actively in cell cycle ([3]; in vitro, within 24 hours post-treatment) | increase in proportion of HSPC in cell cycle / HSPC cell cycle activity ([3]; pulse exposure) | CXCR4 expression on CD34+ UCB cells ([1]; pulse exposure, 24 hours) | inhibition of apoptosis in SKL cells ([2]; at 1 microMolar, serum-reduced medium without growth factors, 24 hours) | cell cycle rate of KL or Lin neg cells ([3]; in vitro) | more SKL cells in S+G2/M phase of the cell cycle ([3]; in vitro, 3 experiments, vs controls)
CCCCC[C@H](O)/C=C/[C@H]1[C@H](O)CC(=O)[C@@H]1C/C=C\CCCC(=O)O [PGE2, Prostaglandin E2] | 17.3% | dose-dependently decreased apoptosis | Increases the Cell Cycle Rate | increase | ~2 fold |  |  |  | 
CCCCC(C)(C)[C@H](O)/C=C/[C@H]1[C@H](O)CC(=O)[C@@H]1C/C=C\CCCC(=O)O [dmPGE2, 16,16-dimethyl prostaglandin E2] |  | reduced apoptosis in SKL cells in a dose dependent fashion |  |  |  | increased CXCR4 expression | ~65% | No significant effect | 60%

Reference: patent US9107909B2, “Materials and methods to enhance hematopoietic stem cells engraftment procedures” (priority 2008, dated 2015)
